Literature values, collected in patent US20260024626A1, “TOXICITY […], OPERATION METHOD OF TOXICITY […], AND OPERATION PROGRAM OF TOXICITY […]” (FUJIFILM Corporation, priority 2023, published 2026).
Where two headings read alike, the source gives them in different places.

Key:
[1] = actual test outcome, as against the positive outcome expected from the assumed metabolic reaction
[2] = With metabolic activation (rat liver extract and coenzyme added)
[3] = Without metabolic activation (no rat liver extract and coenzyme)

**Q.** With `Nc1ccccc1O` [compound A] as the compound, how does the “Ames test result (toxicity), TA98, Intercalation between base pairs” value (“Ames test result (toxicity), TA98” for short) (TA98; [2]) read?
**A.** The value was “No”.

**Q.** And the “Ames test result (toxicity), TA98” value (TA98; [3])?
**A.** The value was “No”.

**Q.** What about the “Ames test result (toxicity), TA1537, Intercalation between base pairs” value (shortened to “Ames test result (toxicity), TA1537”) (TA1537; [2]) of the same compound?
**A.** Its value is “No”.

**Q.** What about the “Ames test result (toxicity), TA1537” value (TA1537; [3]) of the same compound?
**A.** Its value is “No”.

**Q.** What about the “Ames test result (toxicity), TA1535, Covalent bonding to DNA” value (from here on “Ames test result (toxicity), TA1535”) (TA1535; [2]) of the same compound?
**A.** Its value is “No”.

**Q.** What about the “Ames test result (toxicity), TA1535” value (TA1535; [3]) of the same compound?
**A.** The value was “No”.

**Q.** What about the “Ames test result (toxicity), WP2uvrA, Covalent bonding to DNA” value (“Ames test result (toxicity), WP2uvrA” below) (WP2uvrA; [2]) of the same compound?
**A.** The value was “No”.

**Q.** And the “Ames test result (toxicity), WP2uvrA” value (WP2uvrA; [3])?
**A.** The value was “No”.

**Q.** What about the “Ames test result (toxicity), TA100, Covalent bonding to DNA” value (“Ames test result (toxicity), TA100” below) (TA100; [2]) of the same compound?
**A.** Its value is “Toxic”.

**Q.** What about the “Ames test result (toxicity), TA100” value (TA100; [3]) of the same compound?
**A.** Its value is “No”.

**Q.** With `Nc1ccccc1-c1ccccc1` [compound B] as the compound, how does the “Ames test result (toxicity), TA98” value (TA98; [2]) read?
**A.** The value was “No”.

**Q.** And the “Ames test result (toxicity), TA98” value (TA98; [3])?
**A.** The value was “No”.

**Q.** And the “Ames test result (toxicity), TA1537” value (TA1537; [2])?
**A.** The value was “No”.

**Q.** And the “Ames test result (toxicity), TA1537” value (TA1537; [3])?
**A.** The value was “No”.

**Q.** And the “Ames test result (toxicity), TA1535” value (TA1535; [2])?
**A.** The value was “No”.

**Q.** And the “Ames test result (toxicity), TA1535” value (TA1535; [3])?
**A.** Its value is “No”.

**Q.** And the “Ames test result (toxicity), WP2uvrA” value (WP2uvrA; [2])?
**A.** Its value is “No”.

**Q.** And the “Ames test result (toxicity), WP2uvrA” value (WP2uvrA; [3])?
**A.** The value was “No”.

**Q.** What about the “Ames test result (toxicity), TA100” value (TA100; [2]) of the same compound?
**A.** Its value is “Toxic”.

**Q.** What about the “Ames test result (toxicity), TA100” value (TA100; [3]) of the same compound?
**A.** The value was “No”.

**Q.** Which results are given for `Nc1ccccc1Cl` [compound C]?
**A.** Ames test result (toxicity), TA98, Intercalation between base pairs (TA98; [2]): No; Ames test result (toxicity), TA98, Intercalation between base pairs (TA98; [3]): No; Ames test result (toxicity), TA1537, Intercalation between base pairs (TA1537; [2]): No; Ames test result (toxicity), TA1537, Intercalation between base pairs (TA1537; [3]): No; Ames test result (toxicity), TA1535, Covalent bonding to DNA (TA1535; [2]): No; Ames test result (toxicity), TA1535, Covalent bonding to DNA (TA1535; [3]): No; Ames test result (toxicity), WP2uvrA, Covalent bonding to DNA (WP2uvrA; [2]): No; Ames test result (toxicity), WP2uvrA, Covalent bonding to DNA (WP2uvrA; [3]): No; Ames test result (toxicity), TA100, Covalent bonding to DNA (TA100; [2]): No; Ames test result (toxicity), TA100, Covalent bonding to DNA (TA100; [3]): No

**Q.** For monomethylnitrobenzene, which “determination in the in vitro toxicity evaluation test” value [1] is on record?
**A.** Its value is “negative determination”.
